Measured values reported in patent publication US11504382B2, “Tricyclic inhibitors of Hepatitis B virus” (Antios Therapeutics, Inc., priority 2018, dated 2022).
Like-named read-outs stand apart in the source and are kept apart here.

Experiments:
HBV [1] = settings: Phase 1b proof-of-concept clinical studies; cited from earlier work
HBV [2] = assay: HBV inhibition assay in HepAD38 cells (extracellular HBV DNA by direct qPCR); format: cell-based, Hepatitis B virus; settings: for Anti HBV Activity (conc μM) / inhibition at 0.1 µM: 0.1 μM
[3] = 96 hours, relative to non-treated reference
[4] = 96 hours, 8-point dose-response curve, read-out: HBV inh EC50
[5] = Hepatitis B virus, 96 hours, relative to non-treated reference, read-out: Anti HBV Activity (conc μM)
[6] = Hepatitis B virus, 96 hours, 8-point dose-response curve, read-out: HBV inh EC50

O=C(Nc1cc(F)c(F)c(F)c1)c1ccc(F)c(S(=O)(=O)N2CCC(O)CC2)c1 [NVR3-778]
reduction in HBV DNA and serum HBV RNA (HBV [1]): significant reduction in HBV DNA and serum HBV RNA

ethyl 7-methyl-8-((3,4,5-trifluorophenyl)carbamoyl)-3a,4,10,10a-tetrahydro-1H,7H-dipyrrolo[3,4-b:3′,4′-f][1,4,5]oxathiazocine-2(3H)-carboxylate 5,5-dioxide (3aS,10aS) [Example E32]
Anti HBV Activity (conc μM) (HBV [2]; [3]): A (0.1) (HBV inhibition greater than 50% at the concentration indicated in the table) | EC50 (HBV [2]; [4]): < 1000 nM

CCOC(=O)N1CC2COc3c(cn(C)c3C(=O)Nc3ccc(F)c(C#N)c3)S(=O)(=O)NC2C1 (racemic) [Example E17, Cis-Ethyl 8-((3-cyano-4-fluorophenyl)carbamoyl)-7-methyl-3a,4,10,10a-tetrahydro-1H,7H-dipyrrolo[3,4-b:3′,4′-f][1,4,5]oxathiazocine-2(3H)-carboxylate 5,5-dioxide]
inhibition at 0.1 µM (HBV [2]; [5]): > 50% | EC50 (HBV [2]; [6]): < 1000 nM

Cc1cc(NC(=O)c2c3c(cn2C)S(=O)(=O)NC2CN(C(=O)C4(C)COC4)CC2CO3)ccc1F (stereo not drawn) [Example E66, cis-N-(4-fluoro-3-methylphenyl)-7-methyl-2-(3-methyloxetane-3-carbonyl)-2,3,3a,4,10,10a-hexahydro-1H,7H-dipyrrolo[3,4-b:3′,4′-f][1,4,5]oxathiazocine-8-carboxamide 5,5-dioxide]
EC50 (HBV [2]; [6]): < 1000 nM

Cc1cc(NC(=O)c2c3c(cn2C)S(=O)(=O)N[C@H]2CN(C(=O)c4ncoc4C)C[C@H]2CO3)ccc1F [Example E113, (3aR,10aR)—N-(4-fluoro-3-methylphenyl)-7-methyl-2-(5-methyloxazole-4-carbonyl)-2,3,3a,4,10,10a-hexahydro-1H,7H-dipyrrolo[3,4-b:3′,4′-f][1,4,5]oxathiazocine-8-carboxamide 5,5-dioxide]
EC50 (HBV [2]; [6]): < 1000 nM

CNC(=O)N1CC[C@H]2NS(=O)(=O)c3cn(C)c(C(=O)Nc4ccc(F)c(F)c4)c3OC[C@H]21 (single isomer, unassigned) [Example E26]
inhibition at 0.1 µM (HBV [2]; [5]): < 50%

Cn1cc2c(c1C(=O)Nc1cc(F)c(F)c(F)c1)OC[C@H]1CN(C(=O)[C@@H](N)CO)C[C@H]1NS2(=O)=O (mixture of isomers) [Example E68, cis-2-(L-seryl)-7-methyl-N-(3,4,5-trifluorophenyl)-2,3,3a,4,10,10a-hexahydro-1H,7H-dipyrrolo[3,4-b:3′,4′-f][1,4,5]oxathiazocine-8-carboxamide 5,5-dioxide]
inhibition at 0.1 µM (HBV [2]; [5]): < 50%

CCOC(=O)N1CC2COc3c(cn(C)c3C(=O)Nc3ccc(F)c(C#N)c3)S(=O)(=O)NC2C1 (single isomer, unassigned) [Example E46, Ethyl 8-((3-cyano-4-fluorophenyl)carbamoyl)-7-methyl-3a,4,10,10a-tetrahydro-1H,7H-dipyrrolo[3,4-b:3′,4′-f][1,4,5]oxathiazocine-2(3H)-carboxylate 5,5-dioxide (Chiral 3aS,10aS or 3aR,10aR - Stereochemistry unknown)]
Anti HBV Activity (conc μM) (HBV [2]; [3]): B (0.1) (HBV inhibition less than 50% at the concentration indicated in the table)

Cn1cc2c(c1C(=O)Nc1ccc(F)c(F)c1)NCC1CCCCN1S2(=O)=O (stereo not drawn) [Example E2, N-(3,4-difluorophenyl)-2-methyl-2,6,7,8,9,9a,10,11-octahydropyrido[1,2-b]pyrrolo[3,4-f][1,2,5]thiadiazepine-1-carboxamide 4,4-dioxide]
inhibition at 1 µM (HBV [2]; [5]): < 50%

CCOC(=O)N1CC2NS(=O)(=O)c3cn(C)c(C(=O)Nc4ccc(F)c(C)c4)c3OCC2(C)C1 (single isomer, unassigned) [Example E94, Ethyl 8-((4-fluoro-3-methylphenyl)carbamoyl)-7,10a-dimethyl-3a,4,10,10a-tetrahydro-1H,7H-dipyrrolo[3,4-b:3′,4′-f][1,4,5]oxathiazocine-2(3H)-carboxylate 5,5-dioxide(Chiral 3aS,10aS or 3aR,10aR - Stereochemistryunknown)]
EC50 (HBV [2]; [4]): < 1000 nM

Cc1cc(NC(=O)c2c3c(cn2C)S(=O)(=O)NC2CN(C(=O)C4(C)COC4)CCC2CO3)ccc1F (racemic) [Example E136, Cis-N-(4-fluoro-3-methylphenyl)-2-methyl-7-(3-methyloxetane-3-carbonyl)-5,5a,6,7,8,9,9a,10-octahydro-2H-pyrido[3,4-f]pyrrolo[3,4-b][1,4,5]oxathiazocine-1-carboxamide 4,4-dioxide]
EC50 (HBV [2]; [6]): < 1000 nM

CCOC(=O)N1CC2COc3c(cn(C)c3C(=O)Nc3cc(F)c(F)c(F)c3)S(=O)(=O)NC2C1 (racemic) [Example E10, Cis-Ethyl 7-methyl-8-((3,4,5-trifluorophenyl)carbamoyl)-3a,4,10,10a-tetrahydro-1H,7H-dipyrrolo[3,4-b:3′,4′-f][1,4,5]oxathiazocine-2(3H)-carboxylate 5,5-dioxide]
inhibition at 0.5 µM (HBV [2]; Hepatitis B virus, 0.5 μM, 96 hours, relative to non-treated reference, read-out: Anti HBV Activity (conc μM)): > 50% | EC50 (HBV [2]; [6]): < 1000 nM

Cc1nnc(C(=O)N2C[C@@H]3COc4c(cn(C)c4C(=O)Nc4ccc(F)c(C)c4)S(=O)(=O)N[C@H]3C2)o1 (single isomer, unassigned) [Example E154]
EC50 (HBV [2]; [6]): < 1000 nM

Cc1nnc(N2C[C@H]3COc4c(cn(C)c4C(=O)Nc4ccc(F)c(Cl)c4)S(=O)(=O)N[C@H]3C2)o1 [Example E119, (3aR,10aR)—N-(3-chloro-4-fluorophenyl)-7-methyl-2-(5-methyl-1,3,4-oxadiazol-2-yl)-2,3,3a,4,10,10a-hexahydro-1H,7H-dipyrrolo[3,4-b:3′,4′-f][1,4,5]oxathiazocine-8-carboxamide 5,5-dioxide]
EC50 (HBV [2]; [6]): < 1000 nM

Cc1cc(NC(=O)c2c3c(cn2C)S(=O)(=O)NC2CN(C(=O)C4(C)COC4)CCC2CO3)ccc1F (racemic) [Example E141, Trans-N-(4-fluoro-3-methylphenyl)-2-methyl-7-(3-methyloxetane-3-carbonyl)-5,5a,6,7,8,9,9a,10-octahydro-2H-pyrido[3,4-f]pyrrolo[3,4-b][1,4,5]oxathiazocine-1-carboxamide 4,4-dioxide]
EC50 (HBV [2]; [4]): < 1000 nM

Cn1cc2c(c1C(=O)Nc1ccc(F)c(F)c1)OCC1CCCCN1S2(=O)=O (stereo not drawn) [Example E1, N-(3,4-difluorophenyl)-2-methyl-6,7,8,9,9a,10-hexahydro-2H-pyrido[1,2-e]pyrrolo[3,4-b][1,4,5]oxathiazepine-1-carboxamide 4,4-dioxide]
inhibition at 1 µM (HBV [2]; [5]): < 50% | EC50 (HBV [2]; [6]): > 1000 nM

CNC(=O)N1CC2COc3c(cn(C)c3C(=O)Nc3cc(F)c(F)c(F)c3)S(=O)(=O)NC2C1 (racemic) [Example E23, (3aR,10aR) and (3aS,10aS)—N^2,7-dimethyl-N^8-(3,4,5-trifluorophenyl)-3a,4,10,10a-tetrahydro-1H,7H-dipyrrolo[3,4-b:3′,4′-f][1,4,5]oxathiazocine-2,8(3H)-dicarboxamide 5,5-dioxide]
inhibition at 0.1 µM (HBV [2]; [5]): > 50% | EC50 (HBV [2]; [6]): < 1000 nM

Cn1cc2c(c1C(=O)Nc1ccc(F)c(F)c1)OC[C@@H]1CCC[C@H]1NS2(=O)=O [Example E8, (5aR,8aR)—N-(3,4-difluorophenyl)-2-methyl-5a,6,7,8,8a,9-hexahydro-2H,5H-cyclopenta[f]pyrrolo[3,4-b][1,4,5]oxathiazocine-1-carboxamide 4,4-dioxide]
EC50 (HBV [2]; [6]): < 1000 nM

CN1CC2COc3c(cn(C)c3C(=O)Nc3cc(F)c(F)c(F)c3)S(=O)(=O)NC2C1 (racemic) [Example E12, cis-2,7-dimethyl-N-(3,4,5-trifluorophenyl)-2,3,3a,4,10,10a-hexahydro-1H,7H-dipyrrolo[3,4-b:3′,4′-f][1,4,5]oxathiazocine-8-carboxamide 5,5-dioxide]
inhibition at 0.1 µM (HBV [2]; [5]): > 50% | EC50 (HBV [2]; [6]): < 1000 nM

Cc1cc(NC(=O)c2c3c(cn2C)S(=O)(=O)NC2CCN(C(=O)c4ncoc4C)CC2CO3)ccc1F (racemic) [Example E129, Cis-N-(4-fluoro-3-methylphenyl)-2-methyl-8-(5-methyloxazole-4-carbonyl)-5,5a,6,7,8,9,9a,10-octahydro-2H-pyrido[4,3-f]pyrrolo[3,4-b][1,4,5]oxathiazocine-1-carboxamide 4,4-dioxide]
EC50 (HBV [2]; read-out: HBV inh EC50, 96 hours, 8-point dose-response curve): < 1000 nM

Cc1cc(NC(=O)c2c3c(cn2C)S(=O)(=O)NC2CN(C(=O)c4nonc4N)CC2CO3)ccc1F (stereo not drawn) [Example E61, cis-2-(4-amino-1,2,5-oxadiazole-3-carbonyl)-N-(4-fluoro-3-methylphenyl)-7-methyl-2,3,3a,4,10,10a-hexahydro-1H,7H-dipyrrolo[3,4-b:3′,4′-f][1,4,5]oxathiazocine-8-carboxamide 5,5-dioxide]
EC50 (HBV [2]; [6]): < 1000 nM

Cn1cc2c(c1C(=O)Nc1cc(F)c(F)c(F)c1)OCC1CN(C(=O)c3cnco3)CC1NS2(=O)=O (stereo not drawn) [Example E64, cis-7-methyl-2-(oxazole-5-carbonyl)-N-(3,4,5-trifluorophenyl)-2,3,3a,4,10,10a-hexahydro-1H,7H-dipyrrolo[3,4-b:3′,4′-f][1,4,5]oxathiazocine-8-carboxamide 5,5-dioxide]
EC50 (HBV [2]; [6]): < 1000 nM

Cc1cc(NC(=O)c2c3c(cn2C)S(=O)(=O)N[C@@H]2CN(C(=O)OC(C)(C)C)C[C@H]2CO3)ccc1F (single isomer, unassigned) [Example E151]
EC50 (HBV [2]; [6]): < 1000 nM

Cn1cc2c(c1C(=O)Nc1ccc(F)c(F)c1)OC[C@H]1NCC[C@H]1NS2(=O)=O (single isomer, unassigned) [Example E25]
inhibition at 0.1 µM (HBV [2]; [5]): < 50%
